Results as given in PubChem BioAssay AID330 (DTP/NCI, 2004).
Where “and” joins values, the source holds several entries; their conditions need not be identical. Identical values can stand only once. Inconclusive results and toxic doses are left out. Rule for the calls: active = survival T/C of 150% or more; inactive = T/C below 125% in these data.

Test system: P388 leukemia ip, CD2F1 mice, survival T/C
Assay: NCI In Vivo Anticancer Drug Screen. Data for tumor model P388 Leukemia (intraperitoneal) in CD2F1 (CDF1) mice
Details: endpoint: median survival time, higher = longer survival
How it was run: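 Mice carrying the transplanted tumor received test compound or vehicle. Survival was recorded in each group, and the value is the treated-group measurement divided by that of the vehicle-treated control group.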

[1] = dose: 50.0 mg/kg/injection, schedule: Q01DX001 (ip), vehicle: Klucel (hydroxypropylcellulose) (HPC)
[2] = dose: 100.0 mg/kg/injection, schedule: Q01DX001 (ip), vehicle: Klucel (hydroxypropylcellulose) (HPC)
[3] = dose: 200.0 mg/kg/injection, schedule: Q01DX001 (ip), vehicle: Klucel (hydroxypropylcellulose) (HPC)
[4] = dose: 50.0 mg/kg/injection, schedule: Q01DX009 (ip), vehicle: Klucel (hydroxypropylcellulose) (HPC)
[5] = dose: 100.0 mg/kg/injection, schedule: Q01DX009 (ip), vehicle: Klucel (hydroxypropylcellulose) (HPC)
[6] = dose: 200.0 mg/kg/injection, schedule: Q01DX009 (ip), vehicle: Klucel (hydroxypropylcellulose) (HPC)
[7] = dose: 50.0 mg/kg/injection, schedule: Q01DX005 (ip), vehicle: saline
[8] = dose: 100.0 mg/kg/injection, schedule: Q01DX005 (ip), vehicle: saline
[9] = dose: 200.0 mg/kg/injection, schedule: Q01DX005 (ip), vehicle: saline
[10] = dose: 50.0 mg/kg/injection, schedule: Q01DX009 (ip), vehicle: saline with Tween-80
[11] = dose: 100.0 mg/kg/injection, schedule: Q01DX009 (ip), vehicle: saline with Tween-80
[12] = dose: 200.0 mg/kg/injection, schedule: Q01DX009 (ip), vehicle: saline with Tween-80
[13] = dose: 50.0 mg/kg/injection, schedule: Q01DX005 (ip), vehicle: saline with Tween-80
[14] = dose: 100.0 mg/kg/injection, schedule: Q01DX005 (ip), vehicle: saline with Tween-80
[15] = dose: 25.0 mg/kg/injection, schedule: Q01DX009 (ip), vehicle: saline with Tween-80
[16] = dose: 200.0 mg/kg/injection, schedule: Q01DX005 (ip), vehicle: saline with Tween-80
[17] = dose: 25.0 mg/kg/injection, schedule: Q01DX001 (ip), vehicle: Klucel (hydroxypropylcellulose) (HPC)

Measured: T/C

COc1ccc2c(c1)C1(C)C(=O)OC(C2=O)C1C (stereo unspecified)
inactive: [1] 104 % of control | [2] 99 % of control | [3] 114 % of control

CCn1c(=O)c2n[nH]nc2n(CCCl)c1=O
inactive: [4] 101 % of control | [5] 103 % of control | [6] 96 % of control

O=S(=O)(O)C1=CC(=N/Cl)/C=CC/1=N\Cl
inactive: [7] 114 % of control and 116 % of control and 119 % of control | [8] 104 % of control and 121 % of control and 124 % of control | [9] 107 % of control and 116 % of control and 121 % of control | dose: 400.0 mg/kg/injection, schedule: Q01DX005 (ip), vehicle: saline 106 % of control

O=C(Oc1ccccc1)C(Cc1ccccc1)NC(=O)C(F)(F)F (stereo unspecified)
inactive: [10] 108 % of control | [11] 99 % of control | [12] 103 % of control

NC12CC3CC(CC(C3)C1)C2
inactive: dose: 25.0 mg/kg/injection, schedule: Q01DX005 (ip), vehicle: saline with Tween-80 97 % of control | [13] 92 % of control | [14] 88 % of control

O=C(OCCO)c1ccccc1-c1c2cc3cc(Br)c(O)c(Br)c3oc-2c(Br)c(=O)c1Br
inactive: dose: 60.0 mg/kg/injection, schedule: Q01DX005 (ip), vehicle: saline 100 % of control | dose: 120.0 mg/kg/injection, schedule: Q01DX005 (ip), vehicle: saline 94 % of control | dose: 240.0 mg/kg/injection, schedule: Q01DX005 (ip), vehicle: saline 105 % of control

CN1CCN(C)B1N=S(C)(C)=O
inactive: dose: 50.0 mg/kg/injection, schedule: Q01DX005 (ip), vehicle: olive oil, sesame oil, peanut oil 111 % of control | dose: 100.0 mg/kg/injection, schedule: Q01DX005 (ip), vehicle: olive oil, sesame oil, peanut oil 114 % of control

C[n+]1c(-c2cccc(OCCCCCCCCCCCCCCCCOc3cccc(-c4c5cc(N)ccc5c5ccc(N)cc5[n+]4C)c3)c2)c2cc(N)ccc2c2ccc(N)cc21
active: dose: 6.25 mg/kg/injection, schedule: Q01DX009 (ip), vehicle: water 179 % of control
inactive: dose: 0.39 mg/kg/injection, schedule: Q01DX009 (ip), vehicle: water 117 % of control | dose: 0.78 mg/kg/injection, schedule: Q01DX009 (ip), vehicle: water 117 % of control | dose: 1.56 mg/kg/injection, schedule: Q01DX009 (ip), vehicle: water 98 % of control and 119 % of control | dose: 3.12 mg/kg/injection, schedule: Q01DX009 (ip), vehicle: water 113 % of control

Nc1nc(N)c(N=O)c(Nc2cccc(Br)c2)n1
inactive: dose: 12.5 mg/kg/injection, schedule: Q01DX009 (ip), vehicle: saline with Tween-80 99 % of control | [15] 99 % of control | [10] 90 % of control | [11] 91 % of control

N#CC1Oc2ccccc2N1C(=O)c1ccccc1 (stereo unspecified)
inactive: [13] 101 % of control | [14] 102 % of control | [16] 90 % of control

NC(Cc1cc([N+](=O)[O-])ccc1CN(CCCl)CCCl)C(=O)O (stereo unspecified)
active: dose: 1.88 mg/kg/injection, schedule: Q04DX003 (ip), vehicle: Klucel (hydroxypropylcellulose) (HPC) 189 % of control
inactive: dose: 0.06 mg/kg/injection, schedule: Q01DX009 (ip), vehicle: Klucel (hydroxypropylcellulose) (HPC) 104 % of control | dose: 0.11 mg/kg/injection, schedule: Q04DX003 (ip), vehicle: Klucel (hydroxypropylcellulose) (HPC) 110 % of control | dose: 0.12 mg/kg/injection, schedule: Q01DX009 (ip), vehicle: Klucel (hydroxypropylcellulose) (HPC) 120 % of control | dose: 0.23 mg/kg/injection, schedule: Q04DX003 (ip), vehicle: Klucel (hydroxypropylcellulose) (HPC) 104 % of control | dose: 0.25 mg/kg/injection, schedule: Q01DX009 (ip), vehicle: Klucel (hydroxypropylcellulose) (HPC) 117 % of control | dose: 0.47 mg/kg/injection, schedule: Q04DX003 (ip), vehicle: Klucel (hydroxypropylcellulose) (HPC) 120 % of control | dose: 2.0 mg/kg/injection, schedule: Q01DX009 (ip), vehicle: Klucel (hydroxypropylcellulose) (HPC) 105 % of control | dose: 3.75 mg/kg/injection, schedule: Q04DX003 (ip), vehicle: Klucel (hydroxypropylcellulose) (HPC) 119 % of control | dose: 4.0 mg/kg/injection, schedule: Q01DX009 (ip), vehicle: Klucel (hydroxypropylcellulose) (HPC) 93 % of control | dose: 6.25 mg/kg/injection, schedule: Q01DX001 (ip), vehicle: Klucel (hydroxypropylcellulose) (HPC) 93 % of control | dose: 7.5 mg/kg/injection, schedule: Q04DX003 (ip), vehicle: Klucel (hydroxypropylcellulose) (HPC) 99 % of control | dose: 8.0 mg/kg/injection, schedule: Q01DX009 (ip), vehicle: Klucel (hydroxypropylcellulose) (HPC) 90 % of control | dose: 15.0 mg/kg/injection, schedule: Q04DX003 (ip), vehicle: Klucel (hydroxypropylcellulose) (HPC) 91 % of control | [17] 90 % of control

CSCCC(NP(=S)(c1ccccc1)c1ccccc1)C(=O)O (stereo unspecified)
inactive: [4] 104 % of control and 107 % of control | [5] 107 % of control | [6] 101 % of control and 94 % of control

Cn1c(Cl)c(/C=N\Nc2ccccc2[N+](=O)[O-])c2ccccc21
inactive: [17] 90 % of control | [1] 87 % of control and 89 % of control | [2] 86 % of control and 90 % of control | [3] 87 % of control and 88 % of control

On1cccc2c(Br)cnc1-2
inactive: dose: 100.0 mg/kg/injection, schedule: Q01DX001 (ip), vehicle: saline with Tween-80 98 % of control | dose: 200.0 mg/kg/injection, schedule: Q01DX001 (ip), vehicle: saline with Tween-80 99 % of control | dose: 400.0 mg/kg/injection, schedule: Q01DX001 (ip), vehicle: saline with Tween-80 90 % of control

CN(O)C(=O)/C=C/c1ccccc1
inactive: dose: 50.0 mg/kg/injection, schedule: Q01DX009 (ip), vehicle: distilled water + Tween-80 104 % of control | dose: 100.0 mg/kg/injection, schedule: Q01DX009 (ip), vehicle: distilled water + Tween-80 104 % of control | dose: 200.0 mg/kg/injection, schedule: Q01DX009 (ip), vehicle: distilled water + Tween-80 110 % of control

CC1(C)OC2CC3CC(O)CC3C2O1 (stereo unspecified)
inactive: dose: 60.0 mg/kg/injection, schedule: Q01DX005 (ip), vehicle: saline with Tween-80 98 % of control | dose: 120.0 mg/kg/injection, schedule: Q01DX005 (ip), vehicle: saline with Tween-80 102 % of control | dose: 240.0 mg/kg/injection, schedule: Q01DX005 (ip), vehicle: saline with Tween-80 102 % of control

CCOc1ccc(N2CC(=O)N3CCCCN3C(=O)C2)cc1
inactive: dose: 50.0 mg/kg/injection, schedule: Q01DX005 (ip), vehicle: Klucel (hydroxypropylcellulose) (HPC) 112 % of control | dose: 100.0 mg/kg/injection, schedule: Q01DX005 (ip), vehicle: Klucel (hydroxypropylcellulose) (HPC) 103 % of control | dose: 200.0 mg/kg/injection, schedule: Q01DX005 (ip), vehicle: Klucel (hydroxypropylcellulose) (HPC) 105 % of control

N#CCc1nn(-c2ccccc2)c2ncnc(N)c12
inactive: dose: 6.25 mg/kg/injection, schedule: Q01DX009 (ip), vehicle: Klucel (hydroxypropylcellulose) (HPC) 103 % of control | dose: 12.5 mg/kg/injection, schedule: Q01DX009 (ip), vehicle: Klucel (hydroxypropylcellulose) (HPC) 100 % of control and 114 % of control and 94 % of control | dose: 25.0 mg/kg/injection, schedule: Q01DX009 (ip), vehicle: Klucel (hydroxypropylcellulose) (HPC) 108 % of control and 97 % of control (2×) | [4] 100 % of control and 120 % of control and 98 % of control | [5] 106 % of control

O=C(/C=C/c1ccc(Cl)cc1)c1ccccc1O
inactive: [15] 98 % of control | [10] 103 % of control | [11] 107 % of control | [12] 100 % of control

CN(C)c1ccc2[nH]c3c(C(=O)O)cc(=O)c(=O)c=3oc2c1
inactive: [13] 108 % of control | [14] 100 % of control

CC(C(=O)O)N(CCC#N)CCC#N (stereo unspecified)
inactive: [7] 95 % of control | [8] 100 % of control | [9] 95 % of control

Cc1ccc2c(c1)C=CC(C#N)N2C(=O)Oc1ccccc1 (stereo unspecified)
inactive: dose: 6.25 mg/kg/injection, schedule: Q01DX009 (ip), vehicle: saline 99 % of control and 101 % of control | dose: 12.5 mg/kg/injection, schedule: Q01DX009 (ip), vehicle: saline 98 % of control | dose: 25.0 mg/kg/injection, schedule: Q01DX009 (ip), vehicle: saline 93 % of control and 96 % of control

Clc1ccc2noc(-c3ccccc3)c2c1
inactive: [10] 94 % of control | [11] 91 % of control | [12] 98 % of control | dose: 400.0 mg/kg/injection, schedule: Q01DX009 (ip), vehicle: saline with Tween-80 94 % of control

C=C(C)CNCCN
inactive: [13] 112 % of control | [14] 112 % of control | [16] 112 % of control
